Data: US10307413B2, “Tetrahydro- and dihydro-isoquinoline PRMT5 inhibitors and uses thereof” (Epizyme, Inc., priority 2013, dated 2019)

Experiments:
Z-138 cell line = experiment: Z-138 Proliferation Assay (Cell Titer Glo, 5 days); assay type: cell-based; conditions: Homo sapiens, 120 h; Z-138 cells, 5 days, Cell Titer Glo; read-out: Proliferation EC50
Outline: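 Z-138 cells exposed 5 days at 37 °C, 5% CO2 to nine-point 3-fold dilutions (final top 20 μM, 0.2% DMSO), in triplicate. Viability read as ATP by CellTiter-Glo luminescence; IC50 from 4-parameter fit of normalized dose-response curves.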

PRMT5/MEP50 = PRMT5/MEP50 (Homo sapiens (Human), UniProt O14744); experiment: PRMT5 Biochemical Assay (PRMT5/MEP50 enzyme assay on peptide substrate, 3H-SAM Flashplate); conditions: PRMT5 biochemical assay
Sequence of PRMT5/MEP50 (O14744 other isoform, or with tags, fused parts or gaps): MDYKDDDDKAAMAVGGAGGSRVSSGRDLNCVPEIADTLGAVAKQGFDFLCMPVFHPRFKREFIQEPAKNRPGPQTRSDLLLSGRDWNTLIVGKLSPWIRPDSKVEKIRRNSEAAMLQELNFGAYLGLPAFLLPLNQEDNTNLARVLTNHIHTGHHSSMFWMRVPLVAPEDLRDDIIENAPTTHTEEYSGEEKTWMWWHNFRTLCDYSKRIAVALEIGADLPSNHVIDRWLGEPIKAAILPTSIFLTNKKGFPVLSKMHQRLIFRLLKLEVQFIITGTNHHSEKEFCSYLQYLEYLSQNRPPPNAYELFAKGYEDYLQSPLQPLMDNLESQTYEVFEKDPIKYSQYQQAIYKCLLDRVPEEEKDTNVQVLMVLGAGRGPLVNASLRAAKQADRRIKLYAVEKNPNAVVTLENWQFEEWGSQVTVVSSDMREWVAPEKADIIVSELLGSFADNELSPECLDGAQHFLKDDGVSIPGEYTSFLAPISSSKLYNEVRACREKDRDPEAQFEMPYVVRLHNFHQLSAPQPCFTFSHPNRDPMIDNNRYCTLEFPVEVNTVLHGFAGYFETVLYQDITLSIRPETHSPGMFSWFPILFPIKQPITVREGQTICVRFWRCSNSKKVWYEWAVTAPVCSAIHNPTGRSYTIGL
Sequence of PRMT5/MEP50 (Q9BQA1 other isoform, or with tags, fused parts or gaps partner): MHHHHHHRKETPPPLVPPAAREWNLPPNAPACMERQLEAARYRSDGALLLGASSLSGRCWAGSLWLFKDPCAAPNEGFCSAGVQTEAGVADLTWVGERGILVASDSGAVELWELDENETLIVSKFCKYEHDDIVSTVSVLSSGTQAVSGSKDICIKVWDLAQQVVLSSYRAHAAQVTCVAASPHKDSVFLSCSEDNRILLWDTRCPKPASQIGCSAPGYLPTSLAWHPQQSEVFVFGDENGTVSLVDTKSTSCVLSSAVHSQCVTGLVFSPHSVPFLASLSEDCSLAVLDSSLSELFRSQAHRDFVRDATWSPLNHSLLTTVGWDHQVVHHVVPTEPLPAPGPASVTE
Outline: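 Radiometric methylation of a biotin-tagged H4(1-15) peptide by human PRMT5/MEP50 from baculovirus/Sf9, with ³H-SAM incorporation read on streptavidin Flashplates. Buffer: Bicine pH 7.6, TCEP, BSG, Tween20; compound preincubated 30 min at 25 °C; stopped with 600 µM final unlabeled SAM. DMSO and SAH controls; IC50 from fitted % inhibition.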

[1] = test system: symmetric di-methyl arginine in Z-138 cells; experiment: Z-138 Methylation Assay (In Cell Western for symmetric di-methyl arginine and DNA content); assay type: cell-based; conditions: Homo sapiens, In Cell Western methylation, read-out: ICW EC50
Outline: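 Z-138 cells (50,000 cells/mL) treated with compound 96 h at 37 °C, then fixed and stained for symmetric di-methyl arginine (800 nm) with DRAQ5 DNA counterstain (700 nm) on Licor Odyssey.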

## O=C(NC[C@H](O)CN1CCc2ccccc2C1)c1cc(N[C@H]2CC[C@@H](O)CC2)ncn1 [Compound 592]
Z-138 cell line
  EC50: 101 to 1000 nM
PRMT5/MEP50
  IC50: < 100 nM
[1]
  EC50: < 100 nM

## CN(C)[C@H]1CC[C@H](Nc2cc(C(=O)NC[C@H](O)CN3CCc4ccccc4C3)ncn2)CC1 [Compound 593]
Z-138 cell line
  EC50: 101 to 1000 nM
PRMT5/MEP50
  IC50: < 100 nM
[1]
  EC50: < 100 nM

## CC(=O)N[C@H]1CC[C@H](Nc2cc(C(=O)NC[C@H](O)CN3CCc4ccccc4C3)ncn2)CC1 [Compound 594]
Z-138 cell line
  EC50: 101 to 1000 nM
PRMT5/MEP50
  IC50: < 100 nM
[1]
  EC50: < 100 nM

## N[C@H]1CC[C@H](Nc2cc(C(=O)NC[C@H](O)CN3CCc4ccccc4C3)ncn2)CC1 [Compound 595]
Z-138 cell line
  EC50: > 5000 nM
PRMT5/MEP50
  IC50: < 100 nM
[1]
  EC50: < 100 nM

## NC(=O)[C@H]1CC[C@@H](Nc2cc(C(=O)NC[C@H](O)CN3CCc4ccccc4C3)ncn2)CC1 [Compound 596]
Z-138 cell line
  EC50: 1000 to 10000 nM
PRMT5/MEP50
  IC50: < 100 nM
[1]
  EC50: < 100 nM

## CNC(=O)[C@H]1CC[C@@H](Nc2cc(C(=O)NC[C@H](O)CN3CCc4ccccc4C3)ncn2)CC1 [Compound 597]
Z-138 cell line
  EC50: 101 to 1000 nM
PRMT5/MEP50
  IC50: < 100 nM
[1]
  EC50: < 100 nM

## CN(C)C(=O)[C@H]1CC[C@@H](Nc2cc(C(=O)NC[C@H](O)CN3CCc4ccccc4C3)ncn2)CC1 [Compound 598]
Z-138 cell line
  EC50: 1000 to 10000 nM
PRMT5/MEP50
  IC50: < 100 nM
[1]
  EC50: < 100 nM

## O=C(NC[C@H](O)CN1CCc2ccccc2C1)c1cc(N[C@H]2CC[C@@H](C(=O)N3CCOCC3)CC2)ncn1 [Compound 599]
Z-138 cell line
  EC50: 1000 to 10000 nM
PRMT5/MEP50
  IC50: < 100 nM
[1]
  EC50: < 100 nM

## CC(=O)[C@H]1CC[C@H](Nc2cc(C(=O)NC[C@H](O)CN3CCc4ccccc4C3)ncn2)CC1 [Compound 600]
Z-138 cell line
  EC50: 1000 to 10000 nM
PRMT5/MEP50
  IC50: < 100 nM
[1]
  EC50: < 100 nM

## NC(=O)[C@H]1CC[C@H](Nc2cc(C(=O)NC[C@H](O)CN3CCc4ccccc4C3)ncn2)CC1 [Compound 601]
Z-138 cell line
  EC50: 101 to 1000 nM
PRMT5/MEP50
  IC50: < 100 nM
[1]
  EC50: < 100 nM

## CNC(=O)[C@H]1CC[C@H](Nc2cc(C(=O)NC[C@H](O)CN3CCc4ccccc4C3)ncn2)CC1 [Compound 602]
Z-138 cell line
  EC50: 101 to 1000 nM
PRMT5/MEP50
  IC50: < 100 nM
[1]
  EC50: < 100 nM

## CC(C)(O)CNCC1CN2C=NC(C(=O)NC[C@H](O)CN3CCc4ccccc4C3)=CC2=N1 (stereo partly drawn) [Compound 603]
Z-138 cell line
  EC50: 1000 to 10000 nM
PRMT5/MEP50
  IC50: 101 to 1000 nM
[1]
  EC50: > 1000 nM

## Cc1c(NC2COC2)ncnc1C(=O)NC[C@H](O)CN1CCc2ccccc2C1 [Compound 604]
Z-138 cell line
  EC50: 1000 to 10000 nM
PRMT5/MEP50
  IC50: < 100 nM
[1]
  EC50: 101 to 1000 nM

## CC(=O)N1CC(Nc2cc(C(=O)NC[C@H](O)CN3CCc4ccccc4C3(C)C)ncn2)C1 [Compound 605]
Z-138 cell line
  EC50: > 5000 nM
PRMT5/MEP50
  IC50: 101 to 1000 nM
[1]
  EC50: 101 to 1000 nM

## CC(=O)N1CCC(Nc2cc(C(=O)NC[C@H](O)CN3CCc4ccccc4C3(C)C)ncn2)CC1 [Compound 606]
Z-138 cell line
  EC50: > 5000 nM
PRMT5/MEP50
  IC50: 101 to 1000 nM
[1]
  EC50: 101 to 1000 nM

## CC(C(O)CNC(=O)c1cc(NC2COC2)ncn1)N1CCc2ccccc2C1 (stereo not drawn) [Compound 607]
Z-138 cell line
  EC50: > 5000 nM
PRMT5/MEP50
  IC50: 1000 to 10000 nM
[1]
  EC50: > 1000 nM

## CC(=O)N1CC(Nc2cc(C(=O)NCC(O)C(C)N3CCc4ccccc4C3)ncn2)C1 (stereo not drawn) [Compound 608]
Z-138 cell line
  EC50: > 5000 nM
PRMT5/MEP50
  IC50: 101 to 1000 nM
[1]
  EC50: > 1000 nM

## CC(=O)N1CCC(Nc2cc(C(=O)NCC(O)C(C)N3CCc4ccccc4C3)ncn2)CC1 (stereo not drawn) [Compound 609]
Z-138 cell line
  EC50: > 5000 nM
PRMT5/MEP50
  IC50: 101 to 1000 nM
[1]
  EC50: > 1000 nM

## CC(=O)N1CCC(Nc2cc(C(=O)NC[C@H](O)CN3CCc4ccccc4C3)cc(N(C)C)n2)CC1 [Compound 610]
Z-138 cell line
  EC50: < 100 nM
PRMT5/MEP50
  IC50: < 100 nM
[1]
  EC50: < 100 nM

## CC(=O)N1CCC(Nc2cc(C(=O)NC[C@H](O)CN3CCc4ccccc4C3)cc(N3CCOCC3)n2)CC1 [Compound 611]
Z-138 cell line
  EC50: < 100 nM
PRMT5/MEP50
  IC50: < 100 nM
[1]
  EC50: < 100 nM

## CC(=O)N1CCC(Nc2cc(C(=O)NC[C@H](O)CN3CCc4ccccc4C3)cc(N3CCN(C)CC3)n2)CC1 [Compound 612]
Z-138 cell line
  EC50: < 100 nM
PRMT5/MEP50
  IC50: < 100 nM
[1]
  EC50: < 100 nM

## CC(=O)N1CCC(Nc2cc(C(=O)NC[C@H](O)CN3CCc4ccccc4C3)cc(N3CCN(C(C)=O)CC3)n2)CC1 [Compound 613]
Z-138 cell line
  EC50: 101 to 1000 nM
PRMT5/MEP50
  IC50: < 100 nM
[1]
  EC50: < 100 nM

## COCCN(C)c1cc(C(=O)NC[C@H](O)CN2CCc3ccccc3C2)cc(NC2CCN(C(C)=O)CC2)n1 [Compound 614]
Z-138 cell line
  EC50: < 100 nM
PRMT5/MEP50
  IC50: < 100 nM
[1]
  EC50: < 100 nM

## CC(=O)[C@H]1CC[C@@H](Nc2cc(C(=O)NC[C@H](O)CN3CCc4ccccc4C3)ncn2)CC1 [Compound 615]
Z-138 cell line
  EC50: < 100 nM
PRMT5/MEP50
  IC50: < 100 nM
[1]
  EC50: < 100 nM

## CCS(=O)(=O)CCNCC1CN2C=NC(C(=O)NC[C@H](O)CN3CCc4ccccc4C3)=CC2=N1 (stereo partly drawn) [Compound 617]
Z-138 cell line
  EC50: > 5000 nM
PRMT5/MEP50
  IC50: 101 to 1000 nM
[1]
  EC50: > 1000 nM

## CO[C@H]1CC[C@@H](N(C)c2cc(C(=O)NC[C@H](O)CN3CCc4ccccc4C3)ncn2)CC1 [Compound 618]
Z-138 cell line
  EC50: 1000 to 10000 nM
PRMT5/MEP50
  IC50: < 100 nM
[1]
  EC50: < 100 nM

## O=C(NC[C@H](O)CN1CCc2ccccc2C1)c1cnnc(OC2CCNCC2)c1 [Compound 619]
Z-138 cell line
  EC50: 10000 to 50000 nM
PRMT5/MEP50
  IC50: < 100 nM
[1]
  EC50: 101 to 1000 nM

## CN1CCC(Oc2cc(C(=O)NC[C@H](O)CN3CCc4ccccc4C3)cnn2)CC1 [Compound 620]
Z-138 cell line
  EC50: 10000 to 50000 nM
PRMT5/MEP50
  IC50: < 100 nM
[1]
  EC50: 101 to 1000 nM

## NC(=O)CN1CC(Nc2cc(C(=O)NC[C@H](O)CN3CCc4ccccc4C3)ncn2)C1 [Compound 621]
Z-138 cell line
  EC50: 1000 to 10000 nM
PRMT5/MEP50
  IC50: < 100 nM
[1]
  EC50: 1000 to 10000 nM

## CNC(=O)CN1CC(Nc2cc(C(=O)NC[C@H](O)CN3CCc4ccccc4C3)ncn2)C1 [Compound 622]
Z-138 cell line
  EC50: 1000 to 10000 nM
PRMT5/MEP50
  IC50: < 100 nM
[1]
  EC50: 1000 to 10000 nM

## CO[C@H]1CC[C@@H](Nc2cc(C(=O)NC[C@H](O)CN3CCc4ccccc4C3)ncn2)CC1 [Compound 624]
Z-138 cell line
  EC50: < 100 nM
PRMT5/MEP50
  IC50: < 100 nM
[1]
  EC50: < 100 nM

## O=C(NC[C@H](O)CN1CCc2ccccc2C1)c1cnnc(OC2CCN(CC(F)(F)F)CC2)c1 [Compound 626]
Z-138 cell line
  EC50: 1000 to 10000 nM
PRMT5/MEP50
  IC50: 101 to 1000 nM
[1]
  EC50: 101 to 1000 nM

## COc1cc(C(=O)NC[C@H](O)CN2CCc3ccccc3C2)cc(NC2CCN(C(C)=O)CC2)n1 [Compound 627]
Z-138 cell line
  EC50: < 100 nM
PRMT5/MEP50
  IC50: < 100 nM
[1]
  EC50: < 100 nM

## CC(=O)N1CCC(Nc2cc(C(=O)NC[C@H](O)CN3CCc4ccccc4C3)cc(OCCN(C)C)n2)CC1 [Compound 628]
Z-138 cell line
  EC50: < 100 nM
PRMT5/MEP50
  IC50: < 100 nM
[1]
  EC50: < 100 nM

## CC(=O)N1CC(Nc2cc(C(=O)NC[C@H](O)CN3CCc4ccccc4C3)cnn2)C1 [Compound 629]
Z-138 cell line
  EC50: 1000 to 10000 nM
PRMT5/MEP50
  IC50: < 100 nM
[1]
  EC50: 101 to 1000 nM

## CN[C@H]1CC[C@@H](Nc2cc(C(=O)NC[C@H](O)CN3CCc4ccccc4C3)ncn2)CC1 [Compound 630]
Z-138 cell line
  EC50: > 5000 nM
PRMT5/MEP50
  IC50: < 100 nM
[1]
  EC50: 101 to 1000 nM

## CCN(C)[C@H]1CC[C@@H](Nc2cc(C(=O)NC[C@H](O)CN3CCc4ccccc4C3)ncn2)CC1 [Compound 631]
Z-138 cell line
  EC50: > 5000 nM
PRMT5/MEP50
  IC50: < 100 nM
[1]
  EC50: 101 to 1000 nM

## CC(=O)N(C)[C@H]1CC[C@@H](Nc2cc(C(=O)NC[C@H](O)CN3CCc4ccccc4C3)ncn2)CC1 [Compound 632]
Z-138 cell line
  EC50: 101 to 1000 nM
PRMT5/MEP50
  IC50: < 100 nM
[1]
  EC50: < 100 nM

## O=C(NC[C@H](O)CN1CCc2ccccc2C1)C1=CC2=N[C@@H](CO)CN2C=N1 [Compound 634]
Z-138 cell line
  EC50: > 5000 nM
PRMT5/MEP50
  IC50: 101 to 1000 nM
[1]
  EC50: > 1000 nM

## CC(=O)N1CC(Nc2ccnc(C(=O)NC[C@H](O)CN3CCc4ccccc4C3)c2)C1 [Compound 635]
Z-138 cell line
  EC50: < 100 nM
PRMT5/MEP50
  IC50: < 100 nM
[1]
  EC50: < 100 nM

## O=C(NC[C@H](O)CN1CCc2ccccc2C1)c1cc(NC2CN(C(=O)C3CC3)C2)ccn1 [Compound 636]
Z-138 cell line
  EC50: < 100 nM
PRMT5/MEP50
  IC50: < 100 nM
[1]
  EC50: < 100 nM
